Laboratory results from the supplement of paper PMC10307832.

Legend:
Experiment in all cases: relative viability (nuclei count vs DMSO), 5 days (fraction); higher = more cells survive
[1] = compound: CCN1CCN(c2ccc(Nc3cc(N(C)C(=O)Nc4c(Cl)c(OC)cc(OC)c4Cl)ncn3)cc2)CC1 [BGJ398] + CS(=O)(=O)CCNCc1ccc(-c2ccc3ncnc(Nc4ccc(OCc5cccc(F)c5)c(Cl)c4)c3c2)o1 [Lapatinib] (partner 2 µM)
Method in brief: (§1)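 Lung cancer cell lines, seeded in 1536-well plates, were treated the following day by pin tool with a single drug or with five library-drug doses (not always all listed) in √10 steps on top of a fixed anchor-drug dose. Cells were fixed and nuclei stained in one step after 5 days, and nuclei were counted. Relative viability is the nuclei count for treated wells divided by that for vehicle wells, reported as medians of duplicate plates.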

[2] = compound: C1=CC2=NC=CN=C2C=C1/C=C/3\C(=O)NC(=O)S3 + C[C@]1(O)C[C@@H](c2nc(-c3ccc4ccc(-c5ccccc5)nc4c3)c3c(N)nccn32)C1 [Linsitinib] (partner 1 µM)
Method in brief: as §1

[3] = compound: C1=CC2=NC=CN=C2C=C1/C=C/3\C(=O)NC(=O)S3 + Cc1nc(Nc2ncc(C(=O)Nc3c(C)cccc3Cl)s2)cc(N2CCN(CCO)CC2)n1 [Dasatinib] (partner 0.075 µM)
Method in brief: as §1

[4] = compound: C1=CC2=NC=CN=C2C=C1/C=C/3\C(=O)NC(=O)S3 + Nc1nc2[nH]cc(CCc3ccc(C(=O)N[C@@H](CCC(=O)O)C(=O)O)cc3)c2c(=O)[nH]1 [Pemetrexed] (partner 0.2 µM)
Method in brief: as §1

Cell Line | relative viability ([1]; first compound 0.01 µM) | relative viability ([1]; first compound 0.03162 µM) | relative viability ([1]; first compound 0.1 µM) | relative viability ([1]; first compound 0.3162 µM) | relative viability ([1]; first compound 1 µM) | relative viability ([2]; first compound 0.02 µM) | relative viability ([2]; first compound 0.06325 µM) | relative viability ([2]; first compound 0.2 µM) | relative viability ([2]; first compound 0.6325 µM) | relative viability ([2]; first compound 2 µM) | relative viability ([3]; first compound 0.02 µM) | relative viability ([3]; first compound 0.06325 µM) | relative viability ([3]; first compound 0.2 µM) | relative viability ([3]; first compound 0.6325 µM) | relative viability ([3]; first compound 2 µM) | relative viability ([4]; first compound 0.02 µM) | relative viability ([4]; first compound 0.06325 µM) | relative viability ([4]; first compound 0.2 µM) | relative viability ([4]; first compound 0.6325 µM) | relative viability ([4]; first compound 2 µM)
NCI-H2126 | 0.808 | 0.765 | 0.764 | 0.785 | 0.678 | 0.682 | 0.773 | 0.715 | 0.688 | 0.685 | 0.499 | 0.625 | 0.614 | 0.629 | 0.266 | 0.65 | 0.772 | 0.684 | 0.713 | 0.463
NCI-H3122 | 0.97 | 1.03 | 1.03 | 1.07 | 1.08 | 1.01 | 1.15 | 0.955 | 1 | 1.17 | 0.8 | 0.953 | 0.747 | 0.816 | 0.701 | 0.224 | 0.216 | 0.205 | 0.2 | 0.195
NCI-H1975 | 0.915 | 0.903 | 0.859 | 0.899 | 0.785 | 0.819 | 1.01 | 1.09 | 0.884 | 0.934 | 0.293 | 0.38 | 0.369 | 0.334 | 0.318 | 0.266 | 0.297 | 0.299 | 0.288 | 0.294
NCI-H1944 | 0.784 | 0.813 | 0.84 | 0.78 | 0.603 | 1.18 | 1.22 | 1.22 | 0.944 | 1.12 | 0.227 | 0.191 | 0.209 | 0.193 | 0.147 | 0.537 | 0.587 | 0.575 | 0.564 | 0.584
LU99A | 0.935 | 0.896 | 1.07 | 0.913 | 0.85 | 0.597 | 0.559 | 0.561 | 0.5 | 0.475 | 0.576 | 0.922 | 0.462 | 0.508 | 0.287 | 0.167 | 0.131 | 0.165 | 0.176 | 0.166
SW 1573 | 1.03 | 1.12 | 1.08 | 1.02 | 0.984 | 0.78 | 0.825 | 0.943 | 0.847 | 0.714 | 0.392 | 0.76 | 0.69 | 0.523 | 0.291 | 0.883 | 1.1 | 0.802 | 0.862 | 0.711
NCI-H2347 | 0.913 | 1.02 | 0.944 | 0.926 | 0.893 | 1.01 | 0.957 | 0.957 | 0.993 | 0.92 | 0.318 | 0.26 | 0.306 | 0.304 | 0.293 | 0.417 | 0.447 | 0.427 | 0.444 | 0.408
HCC-44 | 0.973 | 1.01 | 1.01 | 1.04 | 0.993 | 0.691 | 0.628 | 0.675 | 0.607 | 0.674 |  |  |  |  |  | 0.578 | 0.688 | 0.667 | 0.675 | 0.655
NCI-H1299 | 0.956 | 0.956 | 0.943 | 0.968 | 0.972 | 0.841 | 1.1 | 0.985 | 0.919 | 0.927 |  |  |  |  |  |  |  |  |  | 
NCI-H727 | 1.05 | 0.799 | 1.22 | 0.789 | 0.648 | 0.341 | 0.223 | 0.33 | 0.403 | 0.252 | 0.488 | 0.362 | 0.355 | 0.378 | 0.24 |  |  |  |  | 
LCLC-103H |  |  |  |  |  | 1.05 | 0.799 | 1.03 | 0.976 | 1.08 | 0.427 | 0.571 | 0.474 | 0.461 | 0.214 | 0.464 | 0.438 | 0.473 | 0.448 | 0.447
ABC-1 | 1.07 | 1.06 | 1.16 | 1.23 | 1.22 | 0.76 | 0.761 | 0.758 | 1.01 | 0.804 | 0.507 | 0.757 | 0.488 | 0.611 | 0.538 |  |  |  |  | 
NCI-H1650 | 0.608 | 0.828 | 0.367 | 0.32 | 0.234 |  |  |  |  |  | 0.274 | 0.355 | 0.364 | 0.289 | 0.248 | 0.376 | 0.381 | 0.319 | 0.357 | 0.394
ChaGo-K-1 |  |  |  |  |  |  |  |  |  |  | 0.611 | 0.574 | 0.596 | 0.544 | 0.499 | 0.263 | 0.277 | 0.262 | 0.265 | 0.256
NCI-H1648 |  |  |  |  |  |  |  |  |  |  |  |  |  |  |  | 0.648 | 0.576 | 0.649 |  | 0.777
A549 | 0.885 | 0.99 | 0.952 | 0.919 | 0.819 | 0.648 | 0.682 | 0.627 | 0.546 | 0.6 |  |  |  |  |  |  |  |  |  | 
NCI-H522 |  |  |  |  |  |  |  |  |  |  | 0.899 | 1.06 | 0.942 | 1.09 | 0.714 | 1 | 0.871 | 1.12 | 0.925 | 0.747
NCI-H2170 | 0.289 | 0.197 | 0.256 | 0.268 | 0.264 |  |  |  |  |  | 0.495 | 0.611 | 0.508 | 0.48 | 0.597 | 0.29 | 0.268 | 0.287 | 0.278 | 0.263
NCI-H1623 |  |  |  |  |  |  |  |  |  |  | 0.511 | 0.523 | 0.526 | 0.524 | 0.422 |  |  |  |  | 
SW 900 |  |  |  |  |  |  |  |  |  |  | 0.499 | 0.788 | 0.625 | 0.883 | 0.486 | 0.491 | 0.471 | 0.481 |  | 0.487
IA-LM | 0.864 | 0.742 | 0.846 | 0.704 | 0.758 | 0.516 | 0.729 | 0.607 | 0.606 | 0.694 |  |  |  |  |  |  |  |  |  | 
EBC-1 | 0.215 | 0.222 | 0.178 | 0.23 | 0.21 | 0.88 | 1.22 | 0.922 | 0.953 | 0.925 |  |  |  |  |  |  |  |  |  | 
